Test results: patent US11613542B2, “Sulfonylureas and sulfonylthioureas as NLRP3 inhibitors” (Inflazome Limited, priority 2017, dated 2023)
Structures can show the parent of a compound that is named as a salt.

Legend:
[1] = target: T1, NLRP3 (Homo sapiens, UniProt Q96P20); assay: Human whole blood IL1β release assay; format: cell-based; set-up: Human whole blood in Li-heparin tubes was obtained from healthy donors; from tissue; host or cells: human whole blood from healthy donors, LPS-primed, nigericin-stimulated
Description: Human Whole Blood IL1β Release Assay
For systemic delivery, the ability to inhibit NLRP3 when the compounds are present within the bloodstream is of great importance. For this reason, the NLRP3 inhibitory activity of a number of compounds in human whole blood was investigated in accordance with the following protocol.
Human whole blood in Li-heparin tubes was obtained from healthy donors from a volunteer donor panel. • 1. Plate out 80 μl of whole blood containing 1 μg/ml of LPS in 96-well, clear bottom cell culture plate (Corning #3585) • 2. Add 10 μl compound (8 points half-log dilution with 10 μM top dose) or vehicle (DMSO 0.1% FAC) to the appropriate wells • 3. Incubate for 3 hrs at 37° C., 5% CO2 • 4. Add 10 μl Nigericin (Sigma #N7143) (10 μM FAC) to all wells • 5. Incubate for 1 hr at 37° C., 5% CO2 • 6. At the end of the incubation period, spin plates at 300 xg for 5 mins to pellet cells and remove 20 μl of supernatant and add to 96-well v-bottom plates for IL-1β analysis (note: these plates containing the supernatants can be stored at −80° C. to be analysed at a later date) • 7. IL-1β was measured according to the manufacturer protocol (Perkin Elmer-AlphaLisa IL-1 Kit AL220F-5000) • 8. IC50 data is fitted to a non-linear regression equation (log inhibitor vs response-variable slope 4-parameters)

[2] = target: T1, NLRP3; assay: THP-1 cells pyroptosis assay; format: cell-based; set-up: Seed THP-1 cells (25,000 cells/well) containing 1.0 μg/ml LPS; host or cells: THP-1 cells, LPS-primed, nigericin-stimulated
Outline: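 THP-1 cells (25,000/well) in serum-free RPMI with 1.0 μg/ml LPS, treated with compound (8-point half-log dilution, 10 μM top, 0.1% DMSO), then nigericin 5 μM final. Viability read by resazurin (100 μM final, 1-2 h, 37° C) fluorescence Ex 560/Em 590 nm; IC50 from 4-parameter variable-slope fit.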

[3] = human whole blood, 1 μg/ml LPS, compound 3 hrs, nigericin 10 μM 1 hr, IL-1β AlphaLisa, read-out: HWB IC50
[4] = THP-1 cells, 1.0 μg/ml LPS, compound 3 hrs, nigericin 5 μM 1 hr, resazurin readout, read-out: THP IC50

T1 sequence (Q96P20 whole entry): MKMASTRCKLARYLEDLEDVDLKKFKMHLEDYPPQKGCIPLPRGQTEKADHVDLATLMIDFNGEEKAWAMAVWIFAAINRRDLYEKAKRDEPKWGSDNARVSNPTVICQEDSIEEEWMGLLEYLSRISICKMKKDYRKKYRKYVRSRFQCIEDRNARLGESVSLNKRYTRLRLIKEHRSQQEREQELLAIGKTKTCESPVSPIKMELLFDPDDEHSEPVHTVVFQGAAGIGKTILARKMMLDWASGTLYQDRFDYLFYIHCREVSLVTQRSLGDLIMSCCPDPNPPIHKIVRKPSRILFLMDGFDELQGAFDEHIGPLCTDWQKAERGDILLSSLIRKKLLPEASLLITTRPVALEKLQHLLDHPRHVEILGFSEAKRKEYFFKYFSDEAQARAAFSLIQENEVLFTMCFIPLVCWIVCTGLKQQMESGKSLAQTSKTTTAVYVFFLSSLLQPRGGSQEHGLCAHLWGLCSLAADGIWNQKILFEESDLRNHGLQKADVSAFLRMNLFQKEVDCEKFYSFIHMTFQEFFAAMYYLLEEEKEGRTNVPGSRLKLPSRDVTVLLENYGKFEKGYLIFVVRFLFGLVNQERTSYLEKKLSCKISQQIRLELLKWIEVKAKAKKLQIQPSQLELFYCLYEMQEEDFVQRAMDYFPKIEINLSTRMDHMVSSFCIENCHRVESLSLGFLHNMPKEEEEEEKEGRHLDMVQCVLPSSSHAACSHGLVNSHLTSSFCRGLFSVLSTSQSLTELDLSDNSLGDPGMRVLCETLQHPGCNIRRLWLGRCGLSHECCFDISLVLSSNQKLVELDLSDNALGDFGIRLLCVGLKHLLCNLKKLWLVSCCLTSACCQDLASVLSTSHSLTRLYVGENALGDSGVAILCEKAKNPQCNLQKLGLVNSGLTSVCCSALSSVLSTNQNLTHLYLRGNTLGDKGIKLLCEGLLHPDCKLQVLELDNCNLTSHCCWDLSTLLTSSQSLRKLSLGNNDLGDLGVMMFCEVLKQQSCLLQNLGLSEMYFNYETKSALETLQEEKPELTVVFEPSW

Compound | IC50 [1, 3] [µM] | IC50 [2, 4] [µM] | IC50 [1] [µM] | IC50 [2] [µM]
CCN(C)C(=O)c1cc(S(=O)(=O)NC(=O)Nc2c(C(C)C)cc(F)cc2C(C)C)nn1C [Example 149, N-Ethyl-3-(N-((4-fluoro-2,6-diisopropylphenyl)carbamoyl)sulfamoyl)-N,1-dimethyl-1H-pyrazole-5-carboxamide, sodium salt] | < 0.8 | < 0.64 |  | 
Cn1nc(S(=O)(=O)NC(=O)Nc2c3c(cc4c2CCC4)CCC3)cc1C(=O)N1CCC1 [Example 154, 5-(Azetidine-1-carbonyl)-N-((1,2,3,5,6,7-hexahydro-s-indacen-4-yl)carbamoyl)-1-methyl-1H-pyrazole-3-sulfonamide] | < 3.2 | < 0.16 |  | 
CNC(=O)c1cc(S(=O)(=O)NC(=O)Nc2c(C(C)C)cccc2C(C)C)nn1C [Example 155, 3-(N-((2,6-Diisopropylphenyl)carbamoyl)sulfamoyl)-N,1-dimethyl-1H-pyrazole-5-carboxamide] | < 0.8 | < 0.64 |  | 
CCN(C)C(=O)c1cc(S(=O)(=O)NC(=O)Nc2c(C(C)C)cccc2C(C)C)nn1C [Example 156, 3-(N-((2,6-Diisopropylphenyl)carbamoyl)sulfamoyl)-N-ethyl-N,1-dimethyl-1H-pyrazole-5-carboxamide] | < 3.2 | < 2.56 |  | 
CC(C)c1cccc(C(C)C)c1NC(=O)NS(=O)(=O)c1cc(C(=O)N(C)C(C)C)n(C)n1 [Example 158, 3-(N-((2,6-Diisopropylphenyl)carbamoyl)sulfamoyl)-N-isopropyl-N,1-dimethyl-1H-pyrazole-5-carboxamide] | < 0.8 | < 0.64 |  | 
CC(C)N(C)C(=O)c1cc(S(=O)(=O)NC(=O)Nc2c3c(cc4c2CCC4)CCC3)nn1C [Example 164, 3-(N-((1,2,3,5,6,7-Hexahydro-s-indacen-4-yl)carbamoyl)sulfamoyl)-N-isopropyl-N,1-dimethyl-1H-pyrazole-5-carboxamide] | < 3.2 | < 0.16 |  | 
CC(C)c1cc(Cl)cc(C(C)C)c1NC(=O)NS(=O)(=O)c1cc(C(=O)N(C)CCO)n(C)n1 [Example 172, 3-(N-((4-Chloro-2,6-diisopropylphenyl)carbamoyl)sulfamoyl)-N-(2-hydroxyethyl)-N,1-dimethyl-1H-pyrazole-5-carboxamide] |  |  | < 1.6 | < 0.16
CN(C)CCn1ccc(S(=O)(=O)NC(=O)Nc2c3c(cc4c2CCC4)CC=C3)n1 [Example 181, 1-(2-(Dimethylamino)ethyl)-N-((1,2,3,7-tetrahydro-s-indacen-4-yl)carbamoyl)-1H-pyrazole-3-sulfonamide, potassium salt] | < 0.8 | < 0.16 |  | 
CN(C)CC(C)(C)n1cc(S(=O)(=O)NC(=O)Nc2c3c(cc4c2CCC4)CCC3)cn1 [Example 183, 1-(1-(Dimethylamino)-2-methylpropan-2-yl)-N-((1,2,3,5,6,7-hexahydro-s-indacen-4-yl)carbamoyl)-1H-pyrazole-4-sulfonamide] | < 1.6 | < 0.16 |  | 
COc1cc(-c2ccc3c(c2NC(=O)NS(=O)(=O)c2ccn(C(C)(C)C#N)n2)CCO3)ccn1 [Example 190, 1-(2-Cyanopropan-2-yl)-N-((5-(2-methoxypyridin-4-yl)-2,3-dihydrobenzofuran-4-yl)carbamoyl)-1H-pyrazole-3-sulfonamide] | < 0.4 | < 0.16 |  | 
CNCC(C)(C)n1ccc(S(=O)(=O)NC(=O)Nc2c(-c3ccnc(OC)c3)ccc3c2CCC3)n1 [Example 191, N-((5-(2-Methoxypyridin-4-yl)-2,3-dihydro-1H-inden-4-yl)carbamoyl)-1-(2-methyl-1-(methylamino)propan-2-yl)-1H-pyrazole-3-sulfonamide, sodium salt] | < 0.4 | < 0.04 |  | 
CN(C)CC(C)(C)n1ccc(S(=O)(=O)NC(=O)Nc2c(-c3ccnc(OC4CC4)c3)ccc3c2CCO3)n1 [Example 192, N-((5-(2-Cyclopropoxypyridin-4-yl)-2,3-dihydrobenzofuran-4-yl)carbamoyl)-1-(1-(dimethylamino)-2-methylpropan-2-yl)-1H-pyrazole-3-sulfonamide, sodium salt] | < 0.4 | < 0.16 |  | 

More lines, main results first:

IC50 [1, 3] [µM] | IC50 [2, 4] [µM] | Compound | IC50 [1] [µM] | IC50 [2] [µM]
< 10 | < 0.64 | CC(C)c1ccc(C(C)C)c(NC(=O)NS(=O)(=O)c2cc(C(=O)N(C)C)n(C)n2)c1 [Example 144, 3-(N-((2,5-Diisopropylphenyl)carbamoyl)sulfamoyl)-N,N,1-trimethyl-1H-pyrazole-5-carboxamide, sodium salt] |  | 
< 0.8 | < 0.16 | CC(C)c1cc(F)cc(C(C)C)c1NC(=O)NS(=O)(=O)c1cc(C(=O)N(C)C(C)C)n(C)n1 [Example 147, 3-(N-((4-Fluoro-2,6-diisopropylphenyl)carbamoyl)sulfamoyl)-N-isopropyl-N,1-dimethyl-1H-pyrazole-5-carboxamide] |  | 
< 0.4 | < 0.64 | CNC(=O)c1cc(S(=O)(=O)NC(=O)Nc2c(C(C)C)cc(F)cc2C(C)C)nn1C [Example 150, 3-(N-((4-Fluoro-2,6-diisopropylphenyl)carbamoyl)sulfamoyl)-N,1-dimethyl-1H-pyrazole-5-carboxamide] |  | 
< 0.4 | < 0.64 | CC(C)c1cccc(C(C)C)c1NC(=O)NS(=O)(=O)c1cc(C(=O)N2CCC2)n(C)n1 [Example 151, 5-(Azetidine-1-carbonyl)-N-((2,6-diisopropylphenyl)carbamoyl)-1-methyl-1H-pyrazole-3-sulfonamide] |  | 
< 0.8 | < 0.16 | CN(C(=O)c1cc(S(=O)(=O)NC(=O)Nc2c3c(cc4c2CCC4)CCC3)nn1C)C1CC1 [Example 152, N-Cyclopropyl-3-(N-((1,2,3,5,6,7-hexahydro-s-indacen-4-yl)carbamoyl)sulfamoyl)-N,1-dimethyl-1H-pyrazole-5-carboxamide] |  | 
< 1.6 | < 0.64 | CN(CC#N)C(=O)c1cc(S(=O)(=O)NC(=O)Nc2c3c(cc4c2CCC4)CCC3)nn1C [Example 153, N-(Cyanomethyl)-3-(N-((1,2,3,5,6,7-hexahydro-s-indacen-4-yl)carbamoyl)sulfamoyl)-N,1-dimethyl-1H-pyrazole-5-carboxamide, partial ammonium salt] |  | 
< 1.6 | < 0.16 | CCN(CC)C(=O)c1cc(S(=O)(=O)NC(=O)Nc2c3c(cc4c2CCC4)CCC3)nn1C [Example 165, N,N-diethyl-3-(N-((1,2,3,5,6,7-Hexahydro-s-indacen-4-yl)carbamoyl)sulfamoyl)-1-methyl-1H-pyrazole-5-carboxamide] |  | 
< 1.6 | < 0.64 | CN(C)Cc1c(S(=O)(=O)NC(=O)Nc2c3c(cc4c2CCC4)CCC3)ncn1C [Example 171, 5-((Dimethylamino)methyl)-N-((1,2,3,5,6,7-hexahydro-s-indacen-4-yl)carbamoyl)-1-methyl-1H-imidazole-4-sulfonamide] |  | 
< 0.4 | < 0.04 | COc1cc(-c2ccc3c(c2NC(=O)NS(=O)(=O)c2ccn(C(C)(C)CN(C)C)n2)CCC3)ccn1 [Example 178, 1-(1-(Dimethylamino)-2-methylpropan-2-yl)-N-((5-(2-methoxypyridin-4-yl)-2,3-dihydro-1H-inden-4-yl)carbamoyl)-1H-pyrazole-3-sulfonamide] |  | 
< 0.4 | < 0.16 | CC(C)(C#N)n1ccc(S(=O)(=O)NC(=O)Nc2c(-c3ccnc(OC(F)F)c3)ccc3c2CCO3)n1 [Example 189, 1-(2-Cyanopropan-2-yl)-N-((5-(2-(difluoromethoxy)pyridin-4-yl)-2,3-dihydrobenzofuran-4-yl)carbamoyl)-1H-pyrazole-3-sulfonamide] |  | 
